Values of other authors, collected in publication PMC12018205, “Mutant protein chemical rescue: From mechanisms to therapeutics” (The Journal of Biological Chemistry, 2025).
One block for each compound: values may come before it.

Experiments:
Q227L Gα (Gsα subunit) = details: substrate-assisted catalysis
[1] = system: S-mandelate dehydrogenase R277G mutant; parameters: method as in PMID 10955993
[2] = system: R359C GS (glutamine synthetase); parameters: method as in PMID 7912599; details: for rescue of kcat / reactivation of R359C mutant: covalent modification of Cys
[3] = system: aspartate aminotransferase K258C mutant; parameters: method as in PMID 1907854; details: aminoethylation of K258C
galactocerebrosidase = system: galactocerebrosidase; parameters: method as in PMID 24913062; details: Krabbe disease
mutant p53 tumors = system: mutant p53 tumors; parameters: method as in PMID 10617466; details: mouse xenograft studies
[4] = system: mutant α-galactosidase A (GalA); parameters: method as in PMID 9883849; details: prevents aggregation in the endoplasmic reticulum
[5] = system: clostridial GDH D156S mutant
[6] = system: rat pancreatic carboxypeptidase A R127M mutant; parameters: method as in PMID 1304353
[7] = system: rat pancreatic carboxypeptidase A R127A mutant; parameters: method as in PMID 1304353; details: up
[8] = system: trehalose phosphorylase R507A mutant; parameters: method as in PMID 18205830; details: up
[9] = system: AS B (asparagine synthetase B) Arg325 to Ala mutant; parameters: method as in PMID 9139684; details: 50 mM rescue agent
[10] = system: ornithine transcarbamylase R57G variant
mutant forms of CFTR = system: mutant forms of CFTR; parameters: method as in PMID 19846789; details: some mutant forms; epithelial cell membranes
[11] = system: N370S-mutant β-glucosidase; parameters: method as in PMID 12434014
HDAC8 = system: HDAC8; parameters: method as in PMID 26463496; details: multiple forms
[12] = system: pyruvate kinase C9S/C268S/K221C triple mutant; details: aminoethylation of K221C
[13] = system: Lys80-mutant leucine dehydrogenase; details: One M; from 1.5% unrescued
[14] = system: E361G-mutant β-galactosidase; details: E361G mutant rescued
[15] = system: Y51A-mutant xylose reductase; details: NAD+-dependent oxidation of xylitol
I278T CBS = system: I278T CBS; parameters: method as in PMID 17540596
tripeptidyl peptidase I = system: tripeptidyl peptidase I; parameters: method as in PMID 20340139; details: one form
[16] = system: rationally designed proteins and temperature-sensitive library mutants in yeast
[17] = system: Paenibacillus sp. dextranase glutamate mutants; details: high concentration of 2.4 M
[18] = system: SpyCas9 H840A and H840G mutants; parameters: method as in PMID 33428390; details: 100 mM; both H840 mutants
[19] = system: β-class carbonic anhydrase Asp34 to Ala mutant; parameters: method as in PMID 12107142; details: without affecting kcat/KM
[20] = system: cytomegalovirus protease assemblin His to Gly mutant; parameters: method as in PMID 16036911; details: in vitro and in mammalian cells
[21] = system: R388A v-Src in SYF MEF cells; details: live cells, FRET-based cell sensor
H122G NDPK = system: H122G NDPK; parameters: method as in PMID 10200157
[22] = system: Csk, Src, and Abl kinases Arg to Ala mutants
subtilisin H64A mutant = system: subtilisin H64A mutant; parameters: method as in PMID 2059622; details: much lesser degree than His-containing substrate
[23] = system: β-glycosidase (β-gly) W33G mutant; parameters: method as in PMID 22655749
[24] = system: Y14G-mutant ketosteroid isomerase; details: 2 mM
Y319A TbtD = details: 10 mM
[25] = system: mutant PAH (phenylalanine hydroxylase); details: PAH stabilization and enhancement of enzyme kinetics

Compound: 3,4-diamino-benzophenone phosphonoamidate-GTP [DABP-GTP]
GTPase activity rescue with GTP analog as substrate (Q227L Gα (Gsα subunit)): nearly WT activity

Compound: CN(C)C(=N)N [1,1-dimethylguanidine]
effectiveness as rescue agent [1]: not effective

Compound: Cn1ccnc1 [1-methylimidazole]
effectiveness as rescue agent [1]: not effective

Compound: N=C(N)CCl [2-CA, 2-chloroacetamidine]
kcat restored, % of the value of the WT enzyme ([2]; R359C GS after covalent modification of Cys): 70%

Compound: NCCBr [2-bromoethylamine]
enzymatic activity restored, % of WT aspartate aminotransferase [3]: 7%

Compound: NCCCBr [3-bromopropylamine]
rescue of kcat / reactivation of R359C mutant [2]: could not reactivate

rescue of galactocerebrosidase (galactocerebrosidase): rescued
Compound: O=c1c(-c2ccc(O)c(O)c2)coc2cc(O)ccc12 [3′,4′,7-trihydroxyisoflavone]

Compound: COc1ccc(/C=C/c2nc(NCCCN(C)C)c3ccccc3n2)cc1 [CP-31398]
effect on tumors (mutant p53 tumors): shrunk tumors

effect of binding on mutant GalA [4]: stabilize mutant GalA
Compound: OC[C@H]1NC[C@H](O)[C@@H](O)[C@H]1O [DGJ, deoxygalactonojirimycin]

rescue of kcat / reactivation of R359C mutant [2]: hardly affected
Compound: N=C(N)CSSCC(=N)N [DTBA, 2,2′-dithiobis(acetamidine)]

Compound: F [Fluoride, fluoride]
maximum extent of rescue, forward reaction, increase over baseline [5]: 1000 fold
maximum extent of rescue, reverse reaction, increase over baseline [5]: 4 fold
EC50 ([5]; read-out: Kr, reverse reaction, reductive amination): 40 mM

Compound: N=C(N)N [Guanidine]
rescue of the R127M mutant [6]: rescued
increase in kcat of the R127A mutant [7]: up to 100 fold
enhancement of enzymatic activity [8]: up to 50 fold

Compound: Cl.N=C(N)N [Guanidinium hydrochloride]
specific activity restored, % of the WT enzyme [9]: ~15%
rescued kcat, within % of the WT enzyme ([10]; R57G variant): ≤ 10%
stimulation of kcat ([10]; R57G variant): 2000 fold
EC50 ([10]; R57G variant, read-out: half-maximal rescue concentration (Kr)): 22 mM

Compound: CC(C)(C)c1cc(C(C)(C)C)c(NC(=O)c2c[nH]c3ccccc3c2=O)cc1O [Ivacaftor]
effect on mutant CFTR (mutant forms of CFTR): enhances their presence and transport function

Compound: CCCCCCCCCN1C[C@H](O)[C@@H](O)[C@H](O)[C@H]1CO [N-(n-nonyl)deoxynojirimycin]
effect on mutant β-glucosidase stability and trafficking to the lysosome [11]: shows promise in promoting the stability

Compound: O=C(NC(=S)Nc1ccccc1)c1ccccc1 [N-(phenylcarbamothioyl)-benzamide]
rescue of HDAC8 mutants (HDAC8): partially or fully rescued

Compound: O=C(NCCI)C(F)(F)F [N-[2-iodoethyl]trifluoroacetamide]
activity rescued, % of the WT pyruvate kinase activity [12]: 4.5%

Compound: CC(=O)O [acetate]
enhancement of D189S trypsin activity (D189S trypsin): could enhance the activity
rescue for substrates bearing Arg at P1 versus Lys (D189S trypsin; D189S trypsin): 10 fold

Compound: N [ammonia]
deamination activity restored, % of WT leucine dehydrogenase [13]: 20%

Compound: N=C(N)NCCC[C@H](N)C(=O)O [arginine]
restoration of R57G variant activity [10]: not

Compound: [N-]=[N+]=[N-] [azide]
enhancement in transglycosylation activity over the WT enzyme [14]: 177 fold

rescue of Y51A-mutant xylose reductase [15]: partially rescued
Compound: Br [bromide ion]

Compound: C[S+](C)[O-] [dimethyl sulfoxide]
rescue of I278T CBS by chemical chaperones (I278T CBS): partially rescued
rescue of tripeptidyl peptidase I (tripeptidyl peptidase I): partially rescued
extent of rescue in vivo [16]: weak

Compound: CCNC(=N)N [ethylguanidine]
increase in kcat of the R127A mutant [7]: up to 100 fold

Compound: O=CO [formate]
rescue of glutamate mutants [17]: effective
enhancement in transglycosylation activity over the WT enzyme [14]: 177 fold

Compound: N=C(N)N [guanidinium]
extent of rescue in vivo [16]: weak

Compound: c1c[nH]cn1 [imidazole]
rescue of in vitro nuclease activity [18]: substantially rescued
rescue of kcat defect [19]: rescued this defect in kcat
pKa: approximately 7
complementation of lost proteolytic activity [20]: complemented efficiently
time to observed tyrosine phosphorylation after treatment [21]: ≤ 1 min
rescue of kcat/KM,ATP (H122G NDPK; ATP): 40 fold
rescued kcat/KM,ATP, fold below that of the WT enzyme (H122G NDPK; ATP): 50 fold
kcat/KM,ATPγS, fold higher than the unrescued condition (H122G NDPK; ATPγS): 100 fold
rescued kcat/KM,ATPγS, fold below WT (H122G NDPK; ATPγS): 2 fold
rescue of activity of Arg to Ala mutants [22]: > 100 fold
EC50 ([22]; read-out: EC50 of tyrosine kinase rescue): ~5 mM
restoration of catalytic activity (subtilisin H64A mutant): partially restored

Compound: c1ccc2[nH]ccc2c1 [indole]
rescue of β-gly [23]: fully rescued

Compound: CN=C(N)N [methylguanidine]
increase in kcat of the R127A mutant [7]: up to 100 fold
rescued KM, within fold of the WT value [1]: ≤ 30 fold
rescued kcat, within fold of the WT value [1]: ≤ 1.5 fold
EC50 ([1]; read-out: half-maximal rescue (Kr)): ~10 mM

Compound: Oc1ccccc1 [phenol]
rescue of activity over baseline [24]: about 10 fold
rescued enzyme activity, % of WT activity [24]: below 1%
effect on pyridine product formation (Y319A TbtD): substantial increase in pyridine formation

Compound: c1ccncc1 [pyridine]
restoration of R57G variant activity [10]: not

Compound: OC[C@@H](O)[C@@H](O)[C@H](O)[C@@H](O)CO [sorbitol]
rescue of I278T CBS by chemical chaperones (I278T CBS): partially rescued

rescue of mutant PAH by excess cofactor [25]: rescue mutant forms of PAH
Compound: C[C@H](O)[C@H](O)[C@H]1CNc2nc(N)[nH]c(=O)c2N1 [tetrahydrobiopterin]

Compound: C[N+](C)(C)[O-] [trimethylamine-N-oxide]
extent of rescue in vivo [16]: weak

rescue of galactocerebrosidase (galactocerebrosidase): rescued
Compound: CN1[C@@H](CC(=O)c2ccccc2)CCC[C@H]1C[C@H](O)c1ccccc1 [α-lobeline]
